Reference: patent US12473295B2, “Substituted straight chain spiro derivatives” (Janssen Pharmaceutica NV, priority 2019, dated 2025)
Counter-ions that a name gives are not always drawn.

What was measured:
[1] = target: menin/MLL (terbium chelate-labeled menin, FITC-MBM1 peptide) (Homo sapiens (Human), UniProt O00255); assay: Menin/MLL homogenous time-resolved fluorescence (HTRF) assay; assay type: binding; details: HTRF-30 min incubation IC50, 30 min incubation;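 also: IC50 from percent inhibition of HTRF signal, normalized between wells without competitor and wells with a saturating competitor that displaces FITC-MBM1 from His-tagged menin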
Chain of menin/MLL (terbium chelate-labeled menin, FITC-MBM1 peptide) (O00255 other isoform, or with tags, fused parts or gaps): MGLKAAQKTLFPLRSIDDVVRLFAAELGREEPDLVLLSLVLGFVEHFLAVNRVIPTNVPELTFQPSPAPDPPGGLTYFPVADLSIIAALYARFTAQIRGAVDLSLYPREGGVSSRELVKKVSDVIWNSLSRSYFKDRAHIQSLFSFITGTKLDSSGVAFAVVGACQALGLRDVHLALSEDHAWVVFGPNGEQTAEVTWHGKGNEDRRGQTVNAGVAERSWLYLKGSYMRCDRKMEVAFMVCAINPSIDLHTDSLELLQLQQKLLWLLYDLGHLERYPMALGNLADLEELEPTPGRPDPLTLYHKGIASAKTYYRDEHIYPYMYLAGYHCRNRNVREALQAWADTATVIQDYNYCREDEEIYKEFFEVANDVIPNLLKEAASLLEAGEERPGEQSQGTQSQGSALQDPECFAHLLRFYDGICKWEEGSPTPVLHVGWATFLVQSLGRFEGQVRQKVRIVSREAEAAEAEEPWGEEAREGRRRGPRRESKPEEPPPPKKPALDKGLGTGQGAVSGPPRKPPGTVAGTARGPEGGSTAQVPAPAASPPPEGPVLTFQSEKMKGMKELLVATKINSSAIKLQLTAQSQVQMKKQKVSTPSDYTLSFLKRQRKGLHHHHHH

KO-52 cells = assay: Proliferation assay (spheroid growth, 8 days), KO-52 control cell line; assay type: cell-based, human; details: Homo sapiens, […], read-out: spheroid assay_OneTime KO-52 IC50
In short: (§1)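 Cells were seeded at 200 (MOLM14, OCI-AML3) or 300 (KO-52) per well in ultra-low attachment round-bottom plates with compounds at several concentrations, 0.3% DMSO, and grown 8 days at 37° C. Spheroid confluence was imaged on day 8; IC50 came from a variable-slope fit normalized to DMSO and high-dose reference compound.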

OCI-AML3 cells = assay: Proliferation assay (spheroid growth, 8 days), OCI-AML3; assay type: cell-based, human; details: Homo sapiens, OCI-AML-3, […], OCI-AML3, 8 days
In short: as §1

MOLM14 cells = assay: Proliferation assay (spheroid growth, 8 days), MOLM14; assay type: cell-based, human; details: Homo sapiens, MOLM-14, […], MOLM14, 8 days; read-out: spheroid assay_OneTime MOLM14 IC50;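 also: spheroid size read as confluence by live-cell imaging, compounds added at a range of concentrations with 0.3% DMSO, DMSO-treated wells = 0%, highest reference dose = low control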
MEIS1 mRNA = MEIS1 mRNA expression assay (Quantigene Singleplex) in MOLM14 cells; assay type: cell-based, human; details: Homo sapiens, MOLM-14, 48 h, 48 hours incubation;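 also: MEIS1 transcript levels read by probe hybridization and normalized to RPL28 mRNA, with IC50 fitted to fold changes across a rising compound concentration series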

| Compound | IC50 [1] [nM] | IC50 (KO-52 cells) [nM] | IC50 (OCI-AML3 cells) [nM] | IC50 (MOLM14 cells) [nM] | IC50 (MEIS1 mRNA) [nM] |
| --- | --- | --- | --- | --- | --- |
| CCN(C(=O)c1cc(F)ccc1Oc1nncnc1N1CCC2(C1)CN([C@H](CCN(C)CCO)C(C)C)C2)C(C)C (single isomer, unassigned) [Compound 270, (*R)—N-ethyl-5-fluoro-2-((5-(2-(1-((2-hydroxyethyl)(methyl)amino)-4-methylpentan-3-yl)-2,6-diazaspiro[3.4]octan-6-yl)-1,2,4-triazin-6-yl)oxy)-N-isopropylbenzamide fumarate] | 0.54 | > 15000 | 480 | 140 | 220 |
| CCN(C(=O)c1cc(F)ccc1Oc1nncnc1N1CCC2(C1)CN([C@H](CCCNC[C@@H](O)COC)C(C)C)C2)C(C)C [Compound 281, N-ethyl-5-fluoro-2-((5-(2-((R)-6-(((R)-2-hydroxy-3-methoxypropyl)amino)-2-methylhexan-3-yl)-2,6-diazaspiro[3.4]octan-6-yl)-1,2,4-triazin-6-yl)oxy)-N-isopropylbenzamide formate] | 0.24 | > 15000 | 90 | 48 | 38 |
| CCN(C(=O)c1cc(F)ccc1Oc1nncnc1N1CCC2(C1)CN([C@H](CCCNCC(C)(C)OC)C(C)C)C2)C(C)C [Compound 135, (R)-N-ethyl-5-fluoro-N-isopropyl-2-((5-(2-(6-((2-methoxy-2-methylpropyl)amino)-2-methylhexan-3-yl)-2,6-diazaspiro[3.4]octan-6-yl)-1,2,4-triazin-6-yl)oxy)benzamide fumarate] | 0.057 | 9690 | 230 | 13 | 16 |
| CCN(C)CCC[C@@H](C(C)C)N1CC2(CCN(c3ncnnc3Oc3ccc(F)cc3C(=O)N(CC)C(C)C)C2)C1 (single isomer, unassigned) [Compound 133, (*S)—N-ethyl-2-((5-(2-(6-(ethyl(methyl)amino)-2-methylhexan-3-yl)-2,6-diazaspiro[3.4]octan-6-yl)-1,2,4-triazin-6-yl)oxy)-5-fluoro-N-isopropylbenzamide fumarate] | 2.13 | > 15000 | 3500 | > 940 | > 1000 |
| CCN(C(=O)c1cc(F)ccc1Oc1nncnc1N1CCC2(C1)CN([C@H](CCCN(C)C[C@@H](O)COC)C(C)C)C2)C(C)C [Compound 283, N-ethyl-5-fluoro-2-((5-(2-((R)-6-(((R)-2-hydroxy-3-methoxypropyl)(methyl)amino)-2-methylhexan-3-yl)-2,6-diazaspiro[3.4]octan-6-yl)-1,2,4-triazin-6-yl)oxy)-N-isopropylbenzamide fumarate] | 0.054 | > 15000 | 46 | 14 | 10 |
| CCN(C(=O)c1cc(F)ccc1Oc1nncnc1N1CCC2(C1)CN(C(CCN)C(C)C)C2)C(C)C (centres unmarked) [Compound 26, 2-((5-(2-(1-amino-4-methylpentan-3-yl)-2,6-diazaspiro[3.4]octan-6-yl)-1,2,4-triazin-6-yl)oxy)-N-ethyl-5-fluoro-N-isopropylbenzamide] | 0.28 | > 15000 | 1340 | 270 | 490 |
| CCN(C(=O)c1cc(F)ccc1Oc1nncnc1N1CCC2(C1)CN([C@H](CCCNCC(COC)OC)C(C)C)C2)C(C)C (stereo partly drawn) [Compound 172, 2-((5-(2-((3R)-6-((2,3-dimethoxypropyl)amino)-2-methylhexan-3-yl)-2,6-diazaspiro[3.4]octan-6-yl)-1,2,4-triazin-6-yl)oxy)-N-ethyl-5-fluoro-N-isopropylbenzamide fumarate] | 0.13 | 13400 | 38 | 23 | 13 |
| CCN(C(=O)c1cc(F)ccc1Oc1nncnc1N1CCC2(C1)CN([C@H](CCCNCC(CO)OC)C(C)C)C2)C(C)C (stereo partly drawn) [Compound 168, N-ethyl-5-fluoro-2-((5-(2-((3R)-6-((3-hydroxy-2-methoxypropyl)amino)-2-methylhexan-3-yl)-2,6-diazaspiro[3.4]octan-6-yl)-1,2,4-triazin-6-yl)oxy)-N-isopropylbenzamide] | 0.1 | > 15000 | 370 | 49 | 74 |
| CCN(CC)C[C@H](O)C[C@@H](C(C)C)N1CC2(CCN(c3ncnnc3Oc3ccc(F)cc3C(=O)N(CC)C(C)C)C2)C1 (single isomer, unassigned) [Compound 336, 2-((5-(2-((3*S,5*R)-6-(diethylamino)-5-hydroxy-2-methylhexan-3-yl)-2,6-diazaspiro[3.4]octan-6-yl)-1,2,4-triazin-6-yl)oxy)-N-ethyl-5-fluoro-N-isopropylbenzamide fumarate] | 0.21 | > 15000 | 870 | 70 | 61 |
| CCN(C(=O)c1cc(F)ccc1Oc1nncnc1N1CCC2(C1)CN([C@H](CCNCC(N)=O)C(C)C)C2)C(C)C (single isomer, unassigned) [Compound 230, (*R)-2-((5-(2-(1-((2-amino-2-oxoethyl)amino)-4-methylpentan-3-yl)-2,6-diazaspiro[3.4]octan-6-yl)-1,2,4-triazin-6-yl)oxy)-N-ethyl-5-fluoro-N-isopropylbenzamide] | ~0.88 | > 15000 | 1160 | > 940 | ~940 |
| CCN(C(=O)c1cc(F)ccc1Oc1nncnc1N1CCC2(C1)CN([C@H](CCCN(C)[C@H](CO)COC)C(C)C)C2)C(C)C [Compound 165, N-ethyl-5-fluoro-2-(5-(2-((R)-6-((R)-1-hydroxy-3-methoxypropan-2-yl)(methyl)amino)-2-methylhexan-3-yl)-2,6-diazaspiro[3.4]octan-6-yl)-1,2,4-triazin-6-yl)oxy)-N-isopropylbenzamide fumarate] | 0.06 | > 15000 | 99 | 30 | 23 |
| CC(C)[C@@H](CCCN(C)C[C@@H](C)C(N)=O)N1CC2(CCN(c3ncnnc3Oc3ccc(F)cc3C(=O)N(C(C)C)C(C)C)C2)C1 (single isomer, unassigned) [Compound 203, 2-((5-(2-((*R)-6-(((S)-3-amino-2-methyl-3-oxopropyl)(methyl)amino)-2-methylhexan-3-yl)-2,6-diazaspiro[3.4]octan-6-yl)-1,2,4-triazin-6-yl)oxy)-5-fluoro-N,N-diisopropylbenzamide fumarate] | 0.3 | > 15000 | 75 | 38 | 42 |
| COCCN(C)CCC[C@@H](C(C)C)N1CC2(CCN(c3ncnnc3Oc3ccc(F)cc3C(=O)N(C(C)C)C(C)C)C2)C1 (single isomer, unassigned) [Compound 95, (*S)-5-fluoro-N,N-isopropyl-2-((5-(2-(6-((2-methoxyethyl)(methyl)amino)-methylhexan-3-yl)-2,6-diazaspiro[3.4]octan-6-yl)-1,2,4-triazin-6-yl)oxy)benzamide oxalate] | 4.98 | > 15000 | 1620 | 390 | ~620 |
